Test system: fever induced by lipopolysaccharide (LPS)
Assay: LPS-induced fever, antipyretic effect of leaf extract (Example 9-1)
Type: in vivo, Sprague-Dawley male white rats
Description: Test animals were used to determine antipyretic effects of the Stauntonia Hexaphylla leaf extract and fractions thereof prepared in Example 1.
The test animals herein used were 5-week old Sprague-Dawley male white mice obtained from Samtako Inc. (Korea). The test animals were bred at a temperature of 20° C. to 24° C. and at a humidity of 60% to 70% under the day-night illumination condition at 12-hour intervals and were freely fed with water and feed. The feed used herein was a solid feed (Samyang Feed Co., Korea). The test animals were bred under the same conditions for 7 days, adapted to laboratory environments and then used for testing.
Specifically, 5 mice were randomly selected from the test animals and set as a first group, and 500 μg/kg of lipopolysaccharide (LPS, Sigma, USA) was intraperitoneally injected into the mice to induce fever. Body temperature was measured as follows. Rectal body temperature was measured using a rectal thermometer (Portable Thermocouple Thermometer (Physitemp Instruments, USA) and a stainless steel rectal probe for rats (Physitemp Instruments, USA) and body temperatures of SD mice were measured three times before the test to minimize an temperature increase caused by temperature measurement stress.
First, in order to determine antipyretic effects of the Stauntonia Hexaphylla leaf hot water extract, a negative control group (LPS) not treated with any sample, a first positive control group (APAP) orally administered with 50 mg/kg of acetaminophen (APAP, Sigma, USA), a conventional drug, found to have antipyretic effect, and a second positive control group (Dexamethasone) orally administered with 1 mg/kg of dexamethasone (Sigma, USA) were used.
First, 500 μg/kg of a fever-inducing substance (LPS) was intraperitoneally injected (i.p.) into the test animals that finished preparations for minimization of temperature increase caused by temperature measurement stress, and a non-treated group (LPS), a group (SHL-200) orally administered with 200 mg/kg of the Stauntonia Hexaphylla leaf hot water extraction, a group (APAP) orally administered with 50 mg/kg of acetaminophen, and a group (Dexamethasone) orally administered with 1 mg/kg of dexamethasone were prepared according to type of test groups. In addition, 200 mg/kg of the Stauntonia Hexaphylla leaf hot water extract was orally administered one hour after administration of the fever-inducing substance (SHL-200 (1 h)), and rectal temperatures were measured at one hour, 4 hours and 8 hours over 8 hours in total after the administration of the fever-inducing substance. The measurement results are shown in FIG. 12 and the following Table 3. Values of the following Table 3 mean body temperatures (° C.) measured at different times.

SMILES | body temperature (rectal) (0 h, 50 mg/kg oral with LPS 500 μg/kg i.p.) [°C] | body temperature (rectal) (1 h, 50 mg/kg oral with LPS 500 μg/kg i.p.) [°C] | body temperature (rectal) (4 h, 50 mg/kg oral with LPS 500 μg/kg i.p.) [°C] | body temperature (rectal) (8 h, 50 mg/kg oral with LPS 500 μg/kg i.p.) [°C] | body temperature (rectal) (0 h, 1 mg/kg oral with LPS 500 μg/kg i.p.) [°C] | body temperature (rectal) (1 h, 1 mg/kg oral with LPS 500 μg/kg i.p.) [°C] | body temperature (rectal) (4 h, 1 mg/kg oral with LPS 500 μg/kg i.p.) [°C] | body temperature (rectal) (8 h, 1 mg/kg oral with LPS 500 μg/kg i.p.) [°C]
CC(=O)Nc1ccc(O)cc1 [APAP, acetaminophen] | 37.2 | 36.58 ± 0.67 | 37.53 ± 0.59 | 37.78 ± 0.13 | – | – | – | –
C[C@@H]1C[C@H]2[C@@H]3CCC4=CC(=O)C=C[C@]4(C)[C@@]3(F)[C@@H](O)C[C@]2(C)[C@@]1(O)C(=O)CO [Dexamethasone, dexamethasone] | – | – | – | – | 37.2 | 37.3 ± 0.52 | 37.6 ± 0.12 | 37.73 ± 0.13

— US9370542B2, “Medical composition containing Stauntonia hexaphylla extract” (JEONNAM BIOINDUSTRY FOUNDATION, priority 2011, dated 2016)
